Reference: patent US12291516B2, “Substituted 1-amino-1H-imidazole-5-carboxamide as Bruton's tyrosine kinase inhibitors” (Henan Zhiwei Biomedicine Co., Ltd., priority 2019, dated 2025)

Target: BTK (Homo sapiens (Human), UniProt Q06187)
Test: In house ELISA kinase inhibition assay, BTK
Format: biochemical
Details: footnote b: from in house procedure (ELISA)
Description: BTK inhibition Assay and selectivity Assay The assay was conducted either a by a third party (Reaction Biology Corporation, PA, USA) or in house.
b) In House Procedure for BTK, BMX, EGFR and ITK:
Kinase inhibitory activities of compounds were evaluated using the Enzyme-linked immunosorbent assay (ELISA). The kinase enzyme of BTK, BMX, EGFR and ITK were purchased from Carna Bioscience (Kobe, Japan). A total of 10 ng/mL antiphosphotyrosine (PY713) antibody (abcam, Cambridge Science Park, UK) was precoated in 96-well ELISA plates. The kinase enzymes in each reaction well were set to BTK (101.25 ng/mL), BMX (90 ng/mL), EGFR (90 ng/mL) or ITK (120 ng/mL) and incubated with indicated drugs in 1× reaction buffer (50 mmol/L HEPES pH 7.4, 20 mmol/L MgCl2, 0.1 mmol/L MnCl2, 1 mmol/L DTT) containing 20 μmol/L (the final concentration of substrate in ITK reaction was 30 μmol/L) substrate (NH2-[…]-biotin) at 25° C. for 1 h. Then, a total of 3 μmol/L ATP was added and the reaction was continued for 2 h. The products of reaction were transferred into 96-well ELISA plates containing antibody and incubated at 25° C. for 30 min. After incubation, the wells were washed with PBS and then incubated with horseradish peroxidase (HRP)-conjugated streptavidin. The wells were visualized using 3,3′,5,5′-tetramethylbenzidine (TMB), and chromogenic reaction was ended with 2 mol/L H2SO4, the absorbance was read with a multimode plate reader (PerkinElmer, USA) at 450 nm. IC50 values and curve fits were obtained using Prism (GraphPad Software). (Table I-IV)

BTK, sequence (Q06187 whole entry): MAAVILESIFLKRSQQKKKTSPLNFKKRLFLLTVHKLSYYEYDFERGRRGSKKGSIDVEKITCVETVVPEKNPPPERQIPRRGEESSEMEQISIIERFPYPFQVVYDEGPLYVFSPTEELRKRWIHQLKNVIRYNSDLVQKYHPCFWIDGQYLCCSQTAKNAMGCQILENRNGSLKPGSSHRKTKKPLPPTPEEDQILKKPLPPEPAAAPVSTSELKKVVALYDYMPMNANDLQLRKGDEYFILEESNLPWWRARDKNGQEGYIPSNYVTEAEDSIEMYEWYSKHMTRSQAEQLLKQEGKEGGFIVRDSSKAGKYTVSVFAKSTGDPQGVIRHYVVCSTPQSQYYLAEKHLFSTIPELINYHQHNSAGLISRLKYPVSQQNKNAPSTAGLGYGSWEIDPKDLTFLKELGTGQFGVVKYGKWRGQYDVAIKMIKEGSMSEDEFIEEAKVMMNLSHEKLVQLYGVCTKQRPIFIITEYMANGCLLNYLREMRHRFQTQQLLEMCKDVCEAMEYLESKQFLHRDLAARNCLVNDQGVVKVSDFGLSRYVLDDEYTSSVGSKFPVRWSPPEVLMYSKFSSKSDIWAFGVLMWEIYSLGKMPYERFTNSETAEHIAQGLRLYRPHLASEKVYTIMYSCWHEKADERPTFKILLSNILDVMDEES

IC50 [nM]	SMILES
58.2	C=CC(=O)N1CCC[C@H]1c1nc(-c2ccc(C(=O)Nc3cc(C)ccn3)cc2)c(C(N)=O)n1NC [Example 45, (S)-2-(1-acryloylpyrrolidin-2-yl)-1-(methylamino)-4-(4-((4-methyl-pyridin-2-yl)carbamoyl)phenyl)-1H-imidazole-5-carboxamide]
9.12	C=CC(=O)N1CCCC[C@H]1c1nc(-c2ccc(C(=O)Nc3cc(OC)ccn3)cc2)c(C(N)=O)n1N [Example 67, (S)-2-(1-acryloylpiperidin-2-yl)-1-amino-4-(4-((4-methoxypyridin-2-yl)carbamoyl)phenyl)-1H-imidazole-5-carboxamide]
212	C=CC(=O)N1CCC[C@H]1c1nc(-c2ccc(C(=O)Nc3ccc(C)cn3)cc2)c(C(N)=O)n1N [Example 19, (S)-2-(1-acryloylpyrrolidin-2-yl)-1-amino-4-(4-((5-methylpyridin-2-yl)carbamoyl)phenyl)-1H-imidazole-5-carboxamide]
18.4	C=CC(=O)N1CCCC[C@H]1c1nc(-c2ccc(C(=O)Nc3ccc(C)cn3)cc2)c(C(N)=O)n1N [Example 61, (S)-2-(1-acryloylpiperidin-2-yl)-1-amino-4-(4-((5-methylpyridin-2-yl)carbamoyl)phenyl)-1H-imidazole-5-carboxamide]
79.6	CC#CC(=O)N1CCCC[C@H]1c1nc(-c2ccc(C(=O)Nc3cc(OC)ccn3)cc2)c(C(N)=O)n1N [Example 68, (S)-1-amino-2-(1-(but-2-ynoyl)piperidin-2-yl)-4-(4-((4-methoxy-pyridin-2-yl)carbamoyl)phenyl)-1H-imidazole-5-carboxamide]
17.9	CC#CC(=O)N1CCCC[C@H]1c1nc(-c2ccc(C(=O)Nc3cc(CC)ccn3)cc2)c(C(N)=O)n1N [Example 77, (S)-1-amino-2-(1-(but-2-ynoyl)piperidin-2-yl)-4-(4-((4-ethylpyridin-2-yl)carbamoyl)phenyl)-1H-imidazole-5-carboxamide]
79	C=CC(=O)N1CCC[C@H]1c1nc(-c2ccc(C(=O)Nc3cc(C)ccn3)cc2)c(C(N)=O)n1N [Example 10, (S)-2-(1-acryloylpyrrolidin-2-yl)-1-amino-4-(4-((4-methylpyridin-2-yl)carbamoyl)phenyl)-1H-imidazole-5-carboxamide]
1670	CC#CC(=O)N1CCC[C@H]1c1nc(-c2ccc(C(=O)Nc3cc(OC)ccn3)cc2)c(C(N)=O)n1N [Example 34, (S)-1-amino-2-(1-(but-2-ynoyl)pyrrolidin-2-yl)-4-(4-((4-methoxy-pyridin-2-yl)carbamoyl)phenyl)-1H-imidazole-5-carboxamide]
9.22	C#CC(=O)N1CCCC[C@H]1c1nc(-c2ccc(C(=O)Nc3cc(OC)ccn3)cc2)c(C(N)=O)n1N [Example 97, (S)-1-amino-4-(4-((4-methoxypyridin-2-yl)carbamoyl)phenyl)-2-(1-propioloylpiperidin-2-yl)-1H-imidazole-5-carboxamide]
9.99	C#CC(=O)N1CCCC[C@H]1c1nc(-c2ccc(C(=O)Nc3cc(CC)ccn3)cc2)c(C(N)=O)n1N [Example 100, (S)-1-amino-4-(4-((4-ethylpyridin-2-yl)carbamoyl)phenyl)-2-(1-propioloylpiperidin-2-yl)-1H-imidazole-5-carboxamide]
1270	C=C(F)C(=O)N1CCCC[C@H]1c1nc(-c2ccc(C(=O)Nc3cc(C)ccn3)cc2)c(C(N)=O)n1N [Example 59, (S)-1-amino-2-(1-(2-fluoroacryloyl)piperidin-2-yl)-4-(4-((4-methylpyridin-2-yl)carbamoyl)phenyl)-1H-imidazole-5-carboxamide]
2890	C=C(F)C(=O)N1CCCC[C@H]1c1nc(-c2ccc(C(=O)Nc3cc(OC)ccn3)cc2)c(C(N)=O)n1N [Example 70, (S)-1-amino-2-(1-(2-fluoroacryloyl)piperidin-2-yl)-4-(4-((4-methoxy-pyridin-2-yl)carbamoyl)phenyl)-1H-imidazole-5-carboxamide]
44.5	C=CC(=O)N1CCCC[C@H]1c1nc(-c2ccc(C(=O)Nc3cc(C)c(F)cn3)cc2)c(C(N)=O)n1N [Example 107, (S)-2-(1-acryloylpiperidin-2-yl)-1-amino-4-(4-((5-fluoro-4-methylpyridin-2-yl)carbamoyl)phenyl)-1H-imidazole-5-carboxamide]
3850	CCc1ccnc(NC(=O)c2ccc(-c3nc([C@@H]4CCCN4C#N)n(N)c3C(N)=O)cc2)c1 [Example 39, (S)-1-amino-2-(1-cyanopyrrolidin-2-yl)-4-(4-((4-ethylpyridin-2-yl)carbamoyl)phenyl)-1H-imidazole-5-carboxamide]
33	C=CC(=O)N1CCC[C@H]1c1nc(-c2ccc(C(=O)Nc3cc(CC)ccn3)cc2)c(C(N)=O)n1N [Example 35, (S)-2-(1-acryloylpyrrolidin-2-yl)-1-amino-4-(4-((4-ethylpyridin-2-yl)carbamoyl)phenyl)-1H-imidazole-5-carboxamide]
16.4	CC#CC(=O)N1CCCC[C@H]1c1nc(-c2ccc(C(=O)Nc3cc(-c4ccccc4)ccn3)cc2)c(C(N)=O)n1N [Example 66, (S)-1-amino-2-(1-(but-2-ynoyl)piperidin-2-yl)-4-(4-((4-phenylpyridin-2-yl)carbamoyl)phenyl)-1H-imidazole-5-carboxamide]
1720	CCc1ccnc(NC(=O)c2ccc(-c3nc([C@@H]4CCCCN4C(=O)/C(C#N)=C/C(C)C)n(N)c3C(N)=O)cc2)c1 [Example 79, (S,E)-1-amino-2-(1-(2-cyano-4-methylpent-2-enoyl)piperidin-2-yl)-4-(4-((4-ethylpyridin-2-yl)carbamoyl)phenyl)-1H-imidazole-5-carboxamide]
1.9	C=CC(=O)N1CCCC[C@H]1c1nc(-c2ccc(C(=O)Nc3cc(-c4ccc(Cl)cc4)ccn3)cc2)c(C(N)=O)n1N [Example 109, (S)-2-(1-acryloylpiperidin-2-yl)-1-amino-4-(4-((4-(4-chlorophenyl)pyridin-2-yl)carbamoyl)phenyl)-1H-imidazole-5-carboxamide]
70.6	C=CC(=O)N1CCC[C@H]1c1nc(-c2ccc(C(=O)Nc3cc(F)ccn3)cc2)c(C(N)=O)n1N [Example 40, (S)-2-(1-acryloylpyrrolidin-2-yl)-1-amino-4-(4-((4-fluoropyridin-2-yl)carbamoyl)phenyl)-1H-imidazole-5-carboxamide]
10.6	C=CC(=O)N1CCCC[C@H]1c1nc(-c2ccc(C(=O)Nc3cc(-c4ccc(C#N)cc4)ccn3)cc2)c(C(N)=O)n1N [Example 111, (S)-2-(1-acryloylpiperidin-2-yl)-1-amino-4-(4-((4-(4-cyanophenyl)pyridin-2-yl)carbamoyl)phenyl)-1H-imidazole-5-carboxamide]
129	CC#CC(=O)N1CCCC[C@H]1c1nc(-c2ccc(C(=O)Nc3ccc(C)cn3)cc2)c(C(N)=O)n1N [Example 64, (S)-1-amino-2-(1-(but-2-ynoyl)piperidin-2-yl)-4-(4-((5-methylpyridin-2-yl)carbamoyl)phenyl)-1H-imidazole-5-carboxamide]
